The source of these data is ChEMBL document CHEMBL1649194, “Pharmacokinetics of intracameral voriconazole injection” (Antimicrob Agents Chemother, 2009).

A short description of data set [1]: Half life in human eye administered as intracameral injection. It counts as ADME, tissue-based.
Data set [2] is described as follows: Half life in New Zealand White rabbit eye administered as intracameral injection. It is filed as ADME, tissue-based, Oryctolagus cuniculus. The settings on record: topical or ocular.
Data set [3] is described as follows: Drug level in New Zealand White rabbit eye aqueous humor at 25 ug/25 ul administered as intracameral injection measured after 30 mins. It counts as ADME, tissue-based, Oryctolagus cuniculus. The settings on record: topical or ocular, read-out: Drug uptake.
A short description of data set [4]: Drug level in New Zealand White rabbit eye aqueous humor at 25 ug/25 ul administered as intracameral injection measured after 180 mins. It counts as ADME, tissue-based, Oryctolagus cuniculus. Conditions: topical or ocular, read-out: Drug uptake.
A short description of data set [5]: Drug level in New Zealand White rabbit eye aqueous humor at 25 ug/25 ul administered as intracameral injection measured after 150 mins. It counts as ADME, tissue-based, Oryctolagus cuniculus. Conditions: topical or ocular, read-out: Drug uptake.
Data set [6] can be described thus: Drug level in New Zealand White rabbit eye aqueous humor at 25 ug/25 ul administered as intracameral injection measured after 60 mins. It is filed as ADME, tissue-based, Oryctolagus cuniculus. Conditions: topical or ocular, read-out: Drug uptake.
Data set [7] in a line: Drug level in New Zealand White rabbit eye aqueous humor at 25 ug/25 ul administered as intracameral injection measured after 90 mins. The settings on record: topical or ocular, read-out: Drug uptake. It counts as ADME, tissue-based, Oryctolagus cuniculus.
Data set [8] is described as follows: Half life in rabbit serum. It is filed as ADME, cell-free, Oryctolagus cuniculus.
The nature of data set [9]: Drug level in New Zealand White rabbit eye aqueous humor at 25 ug/25 ul administered as intracameral injection measured after 120 mins. It is filed as ADME, tissue-based, Oryctolagus cuniculus. The settings on record: topical or ocular, read-out: Drug uptake.
A short description of data set [10]: Drug level in New Zealand White rabbit eye aqueous humor at 25 ug/25 ul administered as intracameral injection measured after 15 mins. It counts as ADME, tissue-based, Oryctolagus cuniculus. Conditions: topical or ocular, read-out: Drug uptake.
Data set [11] is described as follows: Drug level in New Zealand White rabbit eye aqueous humor at 25 ug/25 ul administered as intracameral injection measured after 45 mins. It is filed as ADME, tissue-based, Oryctolagus cuniculus. Conditions: topical or ocular, read-out: Drug uptake.
A short description of data set [12]: Half life in New Zealand White rabbit eye aqueous humor at 25 ug/25 ul administered as intracameral injection. It is filed as ADME, tissue-based, Oryctolagus cuniculus, Aqueous humor of eyeball. Conditions: topical or ocular.
A short description of data set [13]: Half life in human serum. It counts as ADME, cell-free.

Take GENTAMICIN: the t1/2 in data set [1] (topical_or_ocular) is 0.85 h.
The molecule `NCC[C@H](O)C(=O)N[C@@H]1C[C@H](N)[C@@H](O[C@H]2O[C@H](CN)[C@@H](O)[C@H](O)[C@H]2O)[C@H](O)[C@H]1O[C@H]1O[C@H](CO)[C@@H](O)[C@H](N)[C@H]1O` [AMIKACIN] gave a half-life in [2] of 0.58 h.
Regarding `C[C@@H](c1ncncc1F)[C@](O)(Cn1cncn1)c1ccc(F)cc1F` [VORICONAZOLE], the concentration at 0.5 h in data set [3] amounted to 13500 ng/mL. Further, in [4], the concentration at 3 h is 150 ng/mL. In [5], the concentration at 2.5 h stood at 390 ng/mL. Further, in data set [6], the concentration at 1 h came to 5100 ng/mL. Besides, the concentration at 1.5 h in data set [7] amounted to 2670 ng/mL. Further, the half-life is 2.5 h in [8]; 0.367 h in data set [12]; 3.27 h in data set [1] (eye, topical or ocular); 6.5 h in data set [13]. For the same molecule, the concentration at 2 h in [9] is 1400 ng/mL. Besides, in [10], the concentration at 0.25 h is 25400 ng/mL. In addition, in data set [11], the concentration at 0.75 h stood at 7730 ng/mL.
